Common to all, as to format: binding, Corynebacterium diphtheriae
Assay [1] addresses HtaA^CR1 (residues S37-G214). The experiment in a line: Estimated hemin KD from native ESI-MS partitioning. Particulars: read-out: estimated KD for hemin, from nESI-MS Krel using ITC value of ChtA^CR as reference. An excerpt:
(§1) The C. diphtheriae hemin-uptake system contains six CR domains that are located at distinct sites outside the cell (Fig. 1). […] Together, they represent nearly the full complement of C. diphtheriae’s CR domains (only the domains from ChtB and ChtC are missing, but they are expected to have similar binding properties as their paralogs, HtaB and ChtA, respectively). […] Similar measurements were made for the following protein pairs: HtaA^CR2/HtaB^CR, HtaA^CR1/HtaB^CR, HtaA^CR2/HtaA^CR1, ChtA^CR/HtaA^CR2, and ChtA^CR/HtaB^CR (Table S4).
(§2) nESI-MS was used for ligand (heme)-competition experiments between CR domain pairs to determine their relative heme dissociation constant Krelative (Krel) ([37], [56]). In this approach, two different CR domains (e.g. a >90% heme-loaded “heme donor” and a <10% heme-loaded “heme acceptor” CR domain) are mixed and allowed to come to equilibrium (>6 h, 24 °C). The resulting mixture is then analyzed by nESI-MS, where the apo- and holo-abundance of each CR domain is determined from the sum peak intensity from each of their charge states as described previously ([37]). The relative affinity between the CR pair tested can be determined by their nESI-MS abundances according to Equation 1, which is derived from the ratio of each CR’s KD for heme. Importantly, this analysis is independent of [heme] and Krel should be consistent across different concentrations of [heme donor] and [heme acceptor]; thus, we used at least three different holo-donor and apo-acceptor stoichiometry ratios to determine each Krel reported in Table S4.(eq. 1) KRelative=[CR^hemeacceptor][CR^hemedonor·heme]/[CR^hemedonor][CR^hemeacceptor·heme]=Ab(CR^hemeacceptor)Ab(CR^hemedonor·heme)/Ab(CR^hemedonor)Ab(CR^hemeacceptor·heme)
(§3) For nESI-MS heme-competition experiments, CR domains were first buffer-exchanged into 50 mM ammonium acetate (pH 6.9) using dialysis or gel filtration and protein concentration was determined by bicinchoninic acid assay or UV-visible absorbance at 280 nm. […]

The target of assay [2] is HtaA^CR2 (residues G344-G506). The experiment in a line: Estimated hemin KD from native ESI-MS partitioning. Particulars: read-out: estimated KD for hemin, from nESI-MS Krel using ITC value of ChtA^CR as reference.
Text: as §1, §2, §3

The target in assay [3] is HtaB^CR (HtaB, residues of 30–273). The experiment in a line: Estimated hemin KD from native ESI-MS partitioning. Particulars: read-out: estimated KD for hemin, from nESI-MS Krel using ITC value of ChtA^CR as reference.
Text: as §1, §2, §3

The subject of assay [4] is CR domains within C. diphtheriae’s hemin-uptake system. The experiment in a line: Hemin affinity across the cohort of CR domains (ITC and native MS partitioning). Particulars: across ChtA^CR, HtaB^CR, HtaA^CR1, HtaA^CR2.
Text: as §1
nESI-MS was used for ligand (heme)-competition experiments between CR domain pairs to determine their relative heme dissociation constant Krelative (Krel) ([37], [56]). […] The resulting mixture is then analyzed by nESI-MS, where the apo- and holo-abundance of each CR domain is determined from the sum peak intensity from each of their charge states as described previously ([37]). The relative affinity between the CR pair tested can be determined by their nESI-MS abundances according to Equation 1, which is derived from the ratio of each CR’s KD for heme. […]
as §3

For a further assay, the system named is HtaA^CR1 / HtaA^CR2. The assay can be described thus: Native ESI-MS hemin partitioning HtaA^CR1 → HtaA^CR2. Particulars: transfer HtaA^CR1 → HtaA^CR2 (donor HtaA^CR2, acceptor HtaA^CR1). As for the experimental part:
as §2
For nESI-MS heme-competition experiments, CR domains were first buffer-exchanged into 50 mM ammonium acetate (pH 6.9) using dialysis or gel filtration and protein concentration was determined by bicinchoninic acid assay or UV-visible absorbance at 280 nm. Proteins were then mixed at donor:acceptor ratios ranging from 1:9 to 9:1 (but most often 1:3, 1:1, and 3:1), and incubated for at least 6 h at 24 °C. Equilibrated mixtures were then loaded into platinum-coated borosilicate emitter tips with an inner diameter of 200 to 500 nm pulled on a Sutter P-1000 Micropipette Puller and sprayed on a Q-Exactive UHMR Hybrid Quadrupole-Orbitrap Mass Spectrometer (Thermo Fisher Scientific).
Table of all CR pairs and stoichiometric ratios tested during the native ESI-MS heme equilibrium partitioning experiments. Apo or holo CR domains were mixed at various ratios (most commonly 1:3, 1:1, and 3:1, corresponding to 5:15 µM, 10:10 µM, or 15:5 µM, respectively).

A word on the Kd: it is the free concentration of one partner at which half of the binding sites on the other are occupied at equilibrium, for simple one-to-one binding. As for hemin, the Kd in assay [1] was 1.1 ± 0.3 nM; in assay [2] it was 0.85 ± 0.15 nM; in assay [3] it was 5.4 ± 1 nM. Further, the “variation in binding strength” value in assay [4] is given as ~25 fold. The “Krel (donor/acceptor)” value was determined as 0.84 ± 0.12 in the assay on HtaA^CR1 / HtaA^CR2 (AVERAGE), 0.78 with HtaA^CR1 / HtaA^CR2 (ratio 1:1), 0.98 in the assay on HtaA^CR1 / HtaA^CR2 (ratio 1:3) and 0.77 with HtaA^CR1 / HtaA^CR2 (ratio 3:1). Further, the Krel inverse in the assay with HtaA^CR1 / HtaA^CR2 (AVERAGE) came to 1.2 ± 0.15; in the assay with HtaA^CR1 / HtaA^CR2 (ratio 1:1) it was 1.28; with HtaA^CR1 / HtaA^CR2 (ratio 1:3), 1.02; in the assay on HtaA^CR1 / HtaA^CR2 (ratio 3:1), 1.29.

The values above are taken from article PMC12494546, “Structural basis of heme scavenging by the ChtA and HtaA hemophores in Corynebacterium diphtheriae” (The Journal of Biological Chemistry, 2025).
